Laboratory results reported in ChEMBL document CHEMBL1131493, “Inhibitors of farnesyl protein transferase. 4-Amido, 4-carbamoyl, and 4-carboxamido derivatives of 1-(8-chloro-6,11-dihydro-5H-benzo[5,6]- cyclohepta[1,2-b]pyridin-11-yl)piperazine and 1-(3-bromo-8-chloro-6,11- dihydro-5H-benzo[5,6]cyclohepta[1,2-b]pyridin-11-yl)piperazine” (J Med Chem, 1998).
pIC50: −log10 of the molar value.

target: Protein farnesyltransferase (Homo sapiens, UniProt P49354+P49356); test: In vitro inhibition of farnesyltransferase farnesylation of the H-ras oncogene; type: protein-complex assay; design: Inhibition: concentration or dose not given beside the values

Row | pIC50 | Inhibition [%] | SMILES
1 | 5.75 |  | O=C(N1CCN(C2c3ccc(Cl)cc3CCc3cc(Br)cnc32)CC1)n1ccnc1 (configuration not stated)
2 | 7.11 |  | O=C(CC1CCNCC1)N1CCN([C@H]2c3ccc(Cl)cc3CCc3cc(Br)cnc32)CC1
3 | 6.06 |  | CCCNC(=O)N1CCC(CC(=O)N2CCN(C3c4ccc(Cl)cc4CCc4cccnc43)CC2)CC1 (configuration not stated)
4 | 5.89 |  | CC(C)(C)OC(=O)N1CCC(CC(=O)N2CCN(C3c4ccc(Cl)cc4CCc4cc(Br)cnc43)CC2)CC1 (configuration not stated)
5 | 5.51 |  | CC(=O)N1CCCC(CC(=O)N2CCN(C3c4ccc(Cl)cc4CCc4cccnc43)CC2)C1 (configuration not stated)
6 | 5.96 |  | N[C@@H](CO)C(=O)N1CCC(CC(=O)N2CCN(C3c4ccc(Cl)cc4CCc4cccnc43)CC2)CC1 (some centres not stated)
7 | 5.60 |  | NCNC(=O)N1CCC(CC(=O)N2CCN(C3c4ccc(Cl)cc4CCc4cccnc43)CC2)CC1 (configuration not stated)
8 | 5.68 |  | N[C@@H](CS)C(=O)N1CCN(C2c3ccc(Cl)cc3CCc3cc(Br)cnc32)CC1 (some centres not stated)
9 |  | 23 | O=C(C1CCCC2NCCCC21)N1CCN(C2c3ccc(Cl)cc3CCc3cc(Br)cnc32)CC1 (configuration not stated)
10 | 5.15 |  | COC(=O)N1CCCC(CC(=O)N2CCN(C3c4ccc(Cl)cc4CCc4cccnc43)CC2)C1 (configuration not stated)
11 |  | 19 | N[C@@H](CS)CN1CCN(C2c3ccc(Cl)cc3CCc3cc(Br)cnc32)CC1 (some centres not stated)
12 | 7.27 |  | CN1CCCC(NC(=O)N2CCN(C3c4ccc(Cl)cc4CCc4cc(Br)cnc43)CC2)C1 (configuration not stated)
13 | 5.15 |  | CNC(=O)N1CCC[C@@H](CC(=O)N2CCN(C3c4ccc(Cl)cc4CCc4cccnc43)CC2)C1 (some centres not stated)
14 |  | 45 | NC(=O)N1CCCc2c(C(=O)N3CCN(C4c5ccc(Cl)cc5CCc5cc(Br)cnc54)CC3)cccc21 (configuration not stated)
15 | 5.13 |  | CC(C)(C)OC(=O)N1CCC(CC(=O)N2CCN(C3c4ccc(Cl)cc4CCc4cccnc43)CC2)CC1 (configuration not stated)
16 | 6.06 |  | CNC(=S)N1CCC(CC(=O)N2CCN(C3c4ccc(Cl)cc4CCc4cccnc43)CC2)CC1 (configuration not stated)
17 | 6.97 |  | CC(C)(C)NC(=O)N1CCC(CC(=O)N2CCN(C3c4ccc(Cl)cc4CCc4cc(Br)cnc43)CC2)CC1 (configuration not stated)
18 | 5.90 |  | O=C(CC1CCNCC1)N1CCN(C2c3ccc(Cl)cc3CCc3cccnc32)CC1 (configuration not stated)
19 | 6.64 |  | N[C@@H](CS)C(=O)N1CCC(CC(=O)N2CCN(C3c4ccc(Cl)cc4CCc4cc(Br)cnc43)CC2)CC1 (some centres not stated)
20 | 5.85 |  | NC(=O)N1CCCC2C(C(=O)N3CCN(C4c5ccc(Cl)cc5CCc5cc(Br)cnc54)CC3)CCCC21 (configuration not stated)
21 | 7.35 |  | NC(=O)N1CCC(CC(=O)N2CCN(C3c4ccc(Cl)cc4C=Cc4cc(Br)cnc43)CC2)CC1 (configuration not stated)
22 | 6.52 |  | CN1CCCC(OC(=O)N2CCN(C3c4ccc(Cl)cc4CCc4cc(Br)cnc43)CC2)C1 (configuration not stated)
23 | 5.76 |  | NC(=O)N1CCCC(CC(=O)N2CCN(C3c4ccc(Cl)cc4CCc4cccnc43)CC2)C1 (configuration not stated)
24 | 6.04 |  | CCNC(=O)N1CCC(CC(=O)N2CCN(C3c4ccc(Cl)cc4CCc4cccnc43)CC2)CC1 (configuration not stated)
25 | 6.00 |  | CC(C)(C)NC(=O)N1CCC(CC(=O)N2CCN(C3c4ccc(Cl)cc4CCc4cccnc43)CC2)CC1 (configuration not stated)
26 | 6.09 |  | NC(=O)N1CCC(CC(=O)N2CCN(C3c4ccc(Cl)cc4CCc4cccnc43)CC2)CC1 (configuration not stated)

More lines, now with the values behind:

Row | SMILES | pIC50 | Inhibition [%]
27 | CSCC[C@H](N)C(=O)N1CCC(CC(=O)N2CCN(C3c4ccc(Cl)cc4CCc4cccnc43)CC2)CC1 (some centres not stated) | 5.72 | 
28 | CN1CCCC(OC(=O)N2CCN(C3c4ccc(Cl)cc4CCc4cccnc43)CC2)C1 (configuration not stated) | 5.68 | 
29 | O=C(Oc1ccccc1)N1CCN(C2c3ccc(Cl)cc3C=Cc3cccnc32)CC1 (configuration not stated) | 6.06 | 
30 | CC(S)C(=O)NCC(=O)N1CCN(C2c3ccc(Cl)cc3CCc3cccnc32)CC1 (configuration not stated) | 5.56 | 
31 | CN1CCC(CC(=O)N2CCN([C@@H]3c4ccc(Cl)cc4CCc4cccnc43)CC2)CC1 | 5.74 | 
32 | CNC(=O)N1CCC(CC(=O)N2CCN(C3c4ccc(Cl)cc4CCc4cccnc43)CC2)CC1 (configuration not stated) | 5.98 | 
33 | CN1CCC(OC(=O)N2CCN(C3c4ccc(Cl)cc4CCc4cccnc43)CC2)CC1 (configuration not stated) |  | 35
34 | CC(C)(C(=O)N1CCN(C2c3ccc(Cl)cc3CCc3cccnc32)CC1)c1cc[n+]([O-])cc1 (configuration not stated) | 5.66 | 
35 | O=C(Nc1cc[n+]([O-])cc1)N1CCN(C2c3ccc(Cl)cc3CCc3cccnc32)CC1 (configuration not stated) | 5.74 | 
36 | O=C(Cc1cc[n+]([O-])cc1)N1CCN(C2c3ccc(Cl)cc3CCc3c(Cl)ccnc32)CC1 (configuration not stated) | 6.48 | 
37 | O=C(Cc1cccnc1)N1CCN(C(c2ccncc2)c2ccc(Cl)cc2)CC1 (configuration not stated) | 4.32 | 
38 | CN1CCCC(C(=O)N2CCN(C3c4ccc(Cl)cc4CCc4cccnc43)CC2)C1 (configuration not stated) | 5.17 | 
39 | O=C(c1cccc2c1ccc[n+]2[O-])N1CCN(C2c3ccc(Cl)cc3CCc3cc(Br)cnc32)CC1 (configuration not stated) |  | 38
40 | CC(C)(C(=O)N1CCN(C2c3ccc(Cl)cc3CCc3cccnc32)CC1)c1ccccc1 (configuration not stated) | 5.48 | 
41 | COC(=O)N1CCC(CC(=O)N2CCN(C3c4ccc(Cl)cc4CCc4cccnc43)CC2)CC1 (configuration not stated) | 5.89 | 
42 | CC(C(=O)N1CCN(C2c3ccc(Cl)cc3CCc3cccnc32)CC1)c1cccnc1 (configuration not stated) | 5.31 | 
43 | CN1CCCC(NC(=O)N2CCN(C3c4ccc(Cl)cc4CCc4cccnc43)CC2)C1 (configuration not stated) | 6.18 | 
44 | O=C(Cc1cc[n+]([O-])cc1)N1CCN(C2c3ccc(Cl)cc3CCc3cccnc32)CC1 (configuration not stated) | 6.13 | 
45 | CC(C)(C(=O)N1CCN(C2c3ccc(Cl)cc3CCc3cccnc32)CC1)c1ccncc1 (configuration not stated) | 5.76 | 
46 | O=C(C1CCNCC1)N1CCN(C2c3ccc(Cl)cc3CCc3cccnc32)CC1 (configuration not stated) | 4.95 | 
47 | CC(C)(C(=O)N1CCN(C2c3ccc(Cl)cc3CCc3cccnc32)CC1)c1ccc[n+]([O-])c1 (configuration not stated) | 5.90 | 

Row | SMILES | pIC50 | Inhibition [%]
48 | O=C(NCc1ccccc1)N1CCN(C2c3ccc(Cl)cc3CCc3cccnc32)CC1 (configuration not stated) | 5.39 | 
49 | CC(=O)N1CCC(CC(=O)N2CCN([C@@H]3c4ccc(Cl)cc4CCc4cccnc43)CC2)CC1 | 5.46 | 
50 | CC(=O)N1CCC(C(=O)N2CCN([C@@H]3c4ccc(Cl)cc4CCc4cccnc43)CC2)CC1 | 5.39 | 
51 | O=C(c1cccc2ncccc12)N1CCN(C2c3ccc(Cl)cc3CCc3cc(Br)cnc32)CC1 (configuration not stated) |  | 38
52 | CCN1CCC(CC(=O)N2CCN(C3c4ccc(Cl)cc4CCc4cccnc43)CC2)CC1 (configuration not stated) | 5.90 | 
53 | O=C(c1cccc2cccnc12)N1CCN(C2c3ccc(Cl)cc3CCc3cc(Br)cnc32)CC1 (configuration not stated) | 5.74 | 
54 | O=C(Oc1ccccc1)N1CCN(C2c3ccc(Cl)cc3CCc3cccnc32)CC1 (configuration not stated) | 6.10 | 
55 | Clc1ccc2c(c1)CCc1cccnc1C2N1CCNCC1 (configuration not stated) | 4.52 | 
56 | CN1CCCC(CC(=O)N2CCN([C@@H]3c4ccc(Cl)cc4CCc4cccnc43)CC2)C1 (some centres not stated) | 6.15 | 
57 | O=C(Nc1cccnc1)N1CCN([C@@H]2c3ccc(Cl)cc3CCc3cccnc32)CC1 | 5.49 | 
58 | CN1CCC(CC(=O)N2CCN([C@H]3c4ccc(Cl)cc4CCc4cccnc43)CC2)CC1 | 6.19 | 
59 | CN1CCCC(CC(=O)N2CCN([C@H]3c4ccc(Cl)cc4CCc4cccnc43)CC2)C1 (some centres not stated) | 6.22 | 
60 | COCC[C@H]1CN(C2c3ccc(Cl)cc3CCc3cc(Br)cnc32)CCN1C(=O)CC1CCNCC1 (some centres not stated) | 7.16 | 
61 | O=C(N1CCN(C2c3ccc(Cl)cc3CCc3cccnc32)CC1)n1ccnc1 (configuration not stated) | 5.01 | 
62 | O=C(CC1CCCNC1)N1CCN(C2c3ccc(Cl)cc3CCc3cccnc32)CC1 (configuration not stated) | 5.96 | 
63 | C[C@H](N)C(=O)N1CCC(CC(=O)N2CCN(C3c4ccc(Cl)cc4CCc4cccnc43)CC2)CC1 (some centres not stated) | 5.60 | 
64 | CN(C)c1ccc(C(=O)N2CCN(C3c4ccc(Cl)cc4CCc4cccnc43)CC2)cc1 (configuration not stated) | 4.69 | 
65 | CC(=O)N1CCCC(C(=O)N2CCN(C3c4ccc(Cl)cc4CCc4cccnc43)CC2)C1 (configuration not stated) | 5.37 | 
66 | CN1CCC(NC(=O)N2CCN(C3c4ccc(Cl)cc4CCc4cccnc43)CC2)CC1 (configuration not stated) | 6.33 | 
67 | O=C(CC1CCNCC1)N1CCN(C2c3ccc(Cl)cc3C=Cc3cc(Br)cnc32)CC1 (configuration not stated) | 7.08 | 
